The IC50 is the concentration that inhibits the measured activity by half.

The structures appear in SMILES notation. Some results are limits rather than exact numbers.

The values that follow come from US12071453B2, “Neuroactive steroids, compositions, and uses thereof” (Sage Therapeutics, Inc., priority 2013, dated 2024).

The target in assay [1] is T1, GABAA receptors composed of the α4β3δ subunits (GABRA4/GABRB3/GABRD) (Homo sapiens, UniProt P28472+P48169).
T1 construct: expressed in transfected cells; host or cells: Xenopus laevis oocytes, injected (ratio 5:1:5)
T1 sequence (P48169 36-554): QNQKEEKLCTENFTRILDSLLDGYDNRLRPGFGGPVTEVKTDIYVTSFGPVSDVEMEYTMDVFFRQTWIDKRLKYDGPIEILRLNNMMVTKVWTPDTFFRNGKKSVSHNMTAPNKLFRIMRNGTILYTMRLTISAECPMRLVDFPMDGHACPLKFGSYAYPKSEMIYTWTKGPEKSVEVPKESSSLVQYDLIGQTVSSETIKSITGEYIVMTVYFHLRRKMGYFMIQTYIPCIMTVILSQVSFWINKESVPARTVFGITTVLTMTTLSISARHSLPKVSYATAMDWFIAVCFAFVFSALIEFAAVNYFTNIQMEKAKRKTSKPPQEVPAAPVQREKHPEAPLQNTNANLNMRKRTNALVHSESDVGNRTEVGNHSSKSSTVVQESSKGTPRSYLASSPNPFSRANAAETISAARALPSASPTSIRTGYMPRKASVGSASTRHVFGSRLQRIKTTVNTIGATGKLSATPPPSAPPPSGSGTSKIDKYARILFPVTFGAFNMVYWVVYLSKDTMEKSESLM
T1 sequence (P28472 26-473): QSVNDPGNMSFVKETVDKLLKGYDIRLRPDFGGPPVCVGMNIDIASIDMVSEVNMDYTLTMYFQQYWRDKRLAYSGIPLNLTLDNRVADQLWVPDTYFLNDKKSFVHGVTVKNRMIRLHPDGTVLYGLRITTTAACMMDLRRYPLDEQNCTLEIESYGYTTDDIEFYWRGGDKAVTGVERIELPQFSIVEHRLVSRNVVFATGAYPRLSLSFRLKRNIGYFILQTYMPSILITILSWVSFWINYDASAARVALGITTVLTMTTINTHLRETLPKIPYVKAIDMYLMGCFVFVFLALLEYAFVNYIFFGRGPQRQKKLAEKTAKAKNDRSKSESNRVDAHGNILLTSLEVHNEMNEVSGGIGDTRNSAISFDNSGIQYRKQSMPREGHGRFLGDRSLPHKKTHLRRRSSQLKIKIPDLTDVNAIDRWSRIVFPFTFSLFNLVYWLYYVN
T1 sequence (O14764 25-452 partner): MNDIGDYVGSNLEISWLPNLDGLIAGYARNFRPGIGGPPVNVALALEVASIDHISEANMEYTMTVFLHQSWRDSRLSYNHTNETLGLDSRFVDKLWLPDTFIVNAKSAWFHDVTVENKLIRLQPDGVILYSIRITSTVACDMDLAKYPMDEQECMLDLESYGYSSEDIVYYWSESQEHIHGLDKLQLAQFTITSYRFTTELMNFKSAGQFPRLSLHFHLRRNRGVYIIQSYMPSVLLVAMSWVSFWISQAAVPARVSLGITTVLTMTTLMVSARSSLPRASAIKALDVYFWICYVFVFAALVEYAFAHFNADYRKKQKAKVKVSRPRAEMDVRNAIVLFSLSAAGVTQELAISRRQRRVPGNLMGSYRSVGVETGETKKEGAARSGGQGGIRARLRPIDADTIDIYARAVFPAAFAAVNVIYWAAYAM
Description: Two Electrode Voltage Clamp (TEVC), GABA receptor potentiation in Xenopus laevis oocytes, α4β3δ. The assay is classed as cell-based. Conditions: 10 μM compound, 3 μM GABA, read-out: GABA (α4β3δ) % efficacy at 10 μM. The protocol:
(§1) The Two Electrode Voltage Clamp (TEVC) technique was used to investigate the effects of compounds at a concentration of 10 μM on GABAA receptors composed of the α1β2γ2 or α4β3δ subunits expressed in oocytes from the Xenopus laevis. GABA-evoked currents were recorded from oocytes that expressed the GABA receptors and the modulatory effects of the test items on these currents were investigated.
(§2) Ovaries were harvested from Xenopus laevis females that had been deeply anesthetized by cooling at 4° C. and immersion in Tricaine methanesulfonate (MS-222 at a concentration of 150 mg/L) in sodium bicarbonate (300 mg/L). Once anesthetized the animal was decapitated and pithed following the rules of animal rights from the Geneva canton. A small piece of ovary was isolated for immediate preparation while the remaining part was placed at 4° C. in a sterile Barth solution containing in mM NaCl 88, KCl 1, NaHCO3 2.4, HEPES 10, MgSO4·7H2O 0.82, Ca(NO3)2·4H2O 0.33, CaCl2·6H2O 0.41, at pH 7.4, and supplemented with 20 μg/ml of kanamycin, 100 unit/ml penicillin and 100 μg/ml streptomycin. All recordings were performed at 18° C. and cells were super-fused with medium containing in mM: NaCl 82.5, KCl 2.5, HEPES 5, CaCl2·2H2O, ·6H2O 1, pH 7.4.
(§3) Plasmids containing the RNAs of the human GABRA1/GABRB2/GABRG2 and GABRA4/GABRB3/GABRD genes were injected into oocytes using a proprietary automated injection device (Hogg el al., J. Neurosci. Methods, (2008) 169: 65-75). These genes encode for the α1β2γ2 and α4β3δ GABAA subunits respectively. Receptor expression was assessed using electrophysiology at least two days later. The ratio of RNA injection for α1β2γ2 was 1:1:1 and for α4β3δ was 5:1:5. Electrophysiological recordings were made using an automated process equipped with standard TEVC and data were captured and analyzed using a proprietary data acquisition and analysis software running under Matlab (Mathworks Inc.). The membrane potential of the oocytes was maintained at −80 mV throughout the experiments. To explore the effects of proprietary compounds, currents were evoked by applying 10 μM (α1β2γ2) or 3 μM (α4β3δ) GABA for 30 s. These concentrations approximated the EC50 concentration of GABA at each receptor subtype. Oocytes were then re-exposed to GABA again for 30 s. 15 s after beginning the GABA application, test article was co-applied at a concentration of 10 μM for 15 s. Potentiation of the peak current was assessed. Data was filtered at 10 Hz, captured at 100 Hz and analyzed using proprietary data acquisition and analysis software running under Matlab (Mathworks Inc.). For statistical analysis values were computed either with Excel (Microsoft) or Matlab (mathworks Inc.). To obtain mean measurements with standard deviations, all experiments were carried out using at least three cells.
(In general: Two-electrode voltage clamp holds a large cell at a set potential and records current.)

Assay [2] has as its target T2, GABAA receptors composed of the α1β2γ2 subunits (GABRA1/GABRB2/GABRG2) (Homo sapiens, UniProt P14867+P47870).
T2 construct: expressed in transfected cells; host or cells: Xenopus laevis oocytes, injected (ratio 1:1:1)
Briefly: Two Electrode Voltage Clamp (TEVC), GABA receptor potentiation in Xenopus laevis oocytes, α1β2γ2. The assay is classed as cell-based. Conditions: 10 μM compound, 10 μM GABA, read-out: GABA (α1β2γ2) % efficacy at 10 μM. As to the method: as §1, §2, §3

Assay [3] deals with [35S]-TBPS binding in rat brain cortical membranes. Description: Steroid inhibition of [35S]-TBPS binding, rat brain cortical membranes. Conditions: 3 nM [35S]-TBPS, in the presence of 5 μM GABA, read-out: 35S-TBPS Radioligand Displacement (IC50). As to the method: TBPS binding assays using rat brain cortical membranes in the presence of 5 μM GABA has been described (Gee et al, J. Pharmacol. Exp. Ther. 1987, 241, 346-353; Hawkinson et al, Mol. Pharmacol. 1994, 46, 977-985; Lewin, A. H et al., Mol. Pharmacol. 1989, 35, 189-194).
Briefly, cortices are rapidly removed following decapitation of carbon dioxide-anesthetized Sprague-Dawley rats (200-250 g). The cortices are homogenized in 10 volumes of ice-cold 0.32 M sucrose using a glass/teflon homogenizer and centrifuged at 1500×g for 10 min at 4° C. The resultant supernatants are centrifuged at 10,000×g for 20 min at 4° C. to obtain the P2 pellets. The P2 pellets are resuspended in 200 mM NaCl/50 mM Na—K phosphate pH 7.4 buffer and centrifuged at 10,000×g for 10 min at 4° C. This washing procedure is repeated twice and the pellets are resuspended in 10 volumes of buffer. Aliquots (100 μL) of the membrane suspensions are incubated with 3 nM [^35S]-TBPS and 5 μL aliquots of test drug dissolved in dimethyl sulfoxide (DMSO) (final 0.5%) in the presence of 5 μM GABA. The incubation is brought to a final volume of 1.0 mL with buffer. Nonspecific binding is determined in the presence of 2 μM unlabeled TBPS and ranged from 15 to 25%. Following a 90 min incubation at room temp, the assays are terminated by filtration through glass fiber filters (Schleicher and Schuell No. 32) using a cell harvester (Brandel) and rinsed three times with ice-cold buffer. Filter bound radioactivity is measured by liquid scintillation spectrometry. Non-linear curve fitting of the overall data for each drug averaged for each concentration is done using Prism (GraphPad). […] The concentration of test compound producing 50% inhibition (IC50) of specific binding and the maximal extent of inhibition (Imax) are determined for the individual experiments with the same model used for the overall data and then the mean±SEM.s of the individual experiments are calculated.
Various compounds are or can be screened to determine their potential as modulators of [^35S]-TBPS binding in vitro. These assays are or can be performed in accordance with the above discussed procedures.
Background: Loss of bound radioactivity is the signal in a displacement assay; it reports binding, not function.

T2 sequence (P14867 28-456): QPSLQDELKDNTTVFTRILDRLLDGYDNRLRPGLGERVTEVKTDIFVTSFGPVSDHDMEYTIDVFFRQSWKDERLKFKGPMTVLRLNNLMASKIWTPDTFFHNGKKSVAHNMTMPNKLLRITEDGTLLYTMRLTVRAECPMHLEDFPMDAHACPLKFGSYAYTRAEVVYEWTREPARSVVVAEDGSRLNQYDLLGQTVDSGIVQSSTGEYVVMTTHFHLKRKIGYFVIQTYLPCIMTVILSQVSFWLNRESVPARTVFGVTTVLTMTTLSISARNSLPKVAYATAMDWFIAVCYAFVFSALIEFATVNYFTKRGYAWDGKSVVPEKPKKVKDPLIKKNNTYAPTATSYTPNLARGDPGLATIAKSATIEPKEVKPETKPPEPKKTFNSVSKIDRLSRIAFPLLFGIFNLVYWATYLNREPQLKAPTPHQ
T2 sequence (P47870 26-512): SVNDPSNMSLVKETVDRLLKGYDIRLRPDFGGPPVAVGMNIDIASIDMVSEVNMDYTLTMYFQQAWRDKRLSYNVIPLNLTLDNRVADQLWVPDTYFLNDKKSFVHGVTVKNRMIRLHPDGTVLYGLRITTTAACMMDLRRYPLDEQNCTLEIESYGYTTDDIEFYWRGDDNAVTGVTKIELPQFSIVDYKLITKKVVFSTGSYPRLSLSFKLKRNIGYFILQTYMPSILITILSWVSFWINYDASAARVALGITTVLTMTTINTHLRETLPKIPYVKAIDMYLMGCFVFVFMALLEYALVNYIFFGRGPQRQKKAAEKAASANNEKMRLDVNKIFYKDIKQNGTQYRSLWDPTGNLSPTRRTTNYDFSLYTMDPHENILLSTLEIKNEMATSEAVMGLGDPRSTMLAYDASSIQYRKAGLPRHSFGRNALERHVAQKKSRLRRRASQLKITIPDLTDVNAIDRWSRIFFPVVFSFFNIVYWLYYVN
T2 sequence (P18507 40-475 partner): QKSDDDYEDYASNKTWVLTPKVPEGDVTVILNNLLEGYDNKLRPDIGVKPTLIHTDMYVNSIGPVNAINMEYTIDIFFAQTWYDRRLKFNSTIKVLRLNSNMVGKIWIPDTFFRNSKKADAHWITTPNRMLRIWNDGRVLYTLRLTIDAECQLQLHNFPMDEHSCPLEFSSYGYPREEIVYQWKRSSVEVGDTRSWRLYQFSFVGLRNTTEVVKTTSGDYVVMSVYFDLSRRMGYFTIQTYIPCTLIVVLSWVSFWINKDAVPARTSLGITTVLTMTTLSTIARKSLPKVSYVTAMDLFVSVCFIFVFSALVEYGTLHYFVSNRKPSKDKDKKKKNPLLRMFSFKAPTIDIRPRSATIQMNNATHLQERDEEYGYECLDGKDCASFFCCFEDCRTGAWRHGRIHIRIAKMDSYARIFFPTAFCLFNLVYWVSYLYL

Turning to `COC[C@]12CC[C@@](C)(O)C[C@@H]1CC[C@H]1[C@@H]3CC[C@H](C(=O)Cn4cc(Cl)cn4)[C@@]3(C)CC[C@@H]12` [Compound 18], the Emax at 10 µM in assay [1] and in assay [2] was 1000 to 1500% throughout.
For `COC[C@]12CC[C@@](C)(O)C[C@@H]1CC[C@H]1[C@@H]3CC[C@H](C(=O)Cn4ccnc4F)[C@@]3(C)CC[C@@H]12` [Compound 21], the Emax at 10 µM in assay [1] and in assay [2] was 50 to 500% each time. Besides, in assay [3], the IC50 was 100 to 500 nM.
Regarding `CCOC[C@]12CC[C@@](C)(O)C[C@@H]1CC[C@H]1[C@@H]3CC[C@H](C(=O)Cn4nnnc4C)[C@@]3(C)CC[C@@H]12` [Compound 26], the Emax at 10 µM lay within 1000 to 1500% in assay [1] and 500 to 1000% in assay [2]. In addition, the IC50 in assay [3] was in the range of 50 to 100 nM.
For `COC[C@]12CC[C@@](C)(O)C[C@H]1CC[C@H]1[C@@H]3CC[C@H](C(=O)Cn4nnc(C)n4)[C@@]3(C)CC[C@@H]12` [Compound 29] the same measures were 500 to 1000%, 50 to 500% and 100 to 500 nM.
The like results for `COC[C@]12CC[C@@](C)(O)C[C@H]1CC[C@H]1[C@@H]3CC[C@H](C(=O)Cn4ccnn4)[C@@]3(C)CC[C@@H]12` [Compound 32] were, in that order, 1000 to 1500%, 50 to 500% and 50 to 100 nM.
The like results for `COC[C@]12CC[C@@](C)(O)C[C@H]1CC[C@H]1[C@@H]3CC[C@H](C(=O)Cn4cc(S(C)(=O)=O)cn4)[C@@]3(C)CC[C@@H]12` [Compound 33] were, in that order, 50 to 500%, 50 to 500% and 10 to 50 nM.
Regarding `COC[C@]12CC[C@@](C)(O)C[C@@H]1CC[C@H]1[C@@H]3CC[C@H](C(=O)Cn4ncc5ccncc54)[C@@]3(C)CC[C@@H]12` [Compound 45], the Emax at 10 µM in assay [1] is 1000 to 1500%; in assay [2], 500 to 1000%. Besides, in assay [3], the IC50 fell in the range of 50 to 100 nM.
The like results for `COC[C@]12CC[C@@](C)(O)C[C@@H]1CC[C@H]1[C@@H]3CC[C@H](C(=O)Cn4nnc5cccc(F)c54)[C@@]3(C)CC[C@@H]12` [Compound 47] were, in that order, 1000 to 1500%, 500 to 1000% and 10 to 50 nM.
For the compound `COC[C@]12CC[C@@](C)(O)C[C@@H]1CC[C@H]1[C@@H]3CC[C@H](C(=O)Cn4nnc5c(F)cccc54)[C@@]3(C)CC[C@@H]12` [Compound 48], the results for the Emax at 10 µM in assay [1] and in assay [2] were 50 to 500% and 500 to 1000%, respectively. Also, in assay [3], the IC50 was 10 to 50 nM.
For `COC[C@]12CC[C@@](C)(O)C[C@@H]1CC[C@H]1[C@@H]3CC[C@H](C(=O)Cn4nnc5ccc(OC)cc54)[C@@]3(C)CC[C@@H]12` [Compound 51] the same measures were 1000 to 1500%, 500 to 1000% and 10 to 50 nM.
For `COC[C@]12CC[C@@](C)(O)C[C@@H]1CC[C@H]1[C@@H]3CC[C@H](C(=O)Cn4nc5cccc(OC)c5n4)[C@@]3(C)CC[C@@H]12` [Compound 57] the same measures were 500 to 1000%, 50 to 500% and 50 to 100 nM.
Regarding `COC[C@]12CC[C@@](C)(O)C[C@@H]1CC[C@H]1[C@@H]3CC[C@H](C(=O)Cn4nnc5c(OC)cccc54)[C@@]3(C)CC[C@@H]12` [Compound 58], the Emax at 10 µM in assay [1] and in assay [2] was 500 to 1000% each time. Also, the IC50 in assay [3] is less than 10 nM.
Turning to `COC[C@]12CC[C@@](C)(O)C[C@@H]1CC[C@H]1[C@@H]3CC[C@H](C(=O)Cn4nnc5cccc(Cl)c54)[C@@]3(C)CC[C@@H]12` [Compound 59], the Emax at 10 µM in assay [1] and in assay [2] was 500 to 1000% in each case. For the same compound, the half-inhibitory concentration (IC50) in assay [3] is 10 to 50 nM.
On to `COC[C@]12CC[C@@](C)(O)C[C@@H]1CC[C@H]1[C@@H]3CC[C@H](C(=O)Cn4nnc5ccc(OC)c(OC)c54)[C@@]3(C)CC[C@@H]12` [Compound 62], for which the Emax at 10 µM was in the range of 1000 to 1500% in assay [1] and 500 to 1000% in assay [2]. Also, the half-inhibitory concentration (IC50) in assay [3] was in the range of 10 to 50 nM.
Turning to `COC[C@]12CC[C@@](C)(O)C[C@H]1CC[C@H]1[C@@H]3CC[C@H](C(=O)Cn4nnc5c(F)cccc54)[C@@]3(C)CC[C@@H]12` [Compound 82], the Emax at 10 µM in assay [1] and in assay [2] was 500 to 1000% each time.
As to `COC[C@]12CC[C@@](C)(O)C[C@@H]1CC[C@H]1[C@@H]3CC[C@H](C(=O)Cn4nnc5cc(Cl)cnc54)[C@@]3(C)CC[C@@H]12` [Compound 100], the Emax at 10 µM in assay [2] is 500 to 1000%. Further, the IC50 in assay [3] lay within 100 to 500 nM.
For the compound `COC[C@]12CC[C@@](C)(O)C[C@@H]1CC[C@H]1[C@@H]3CC[C@H](C(=O)Cn4nnc5ncc(Cl)cc54)[C@@]3(C)CC[C@@H]12` [Compound 101], the Emax at 10 µM in assay [2] is 500 to 1000%. The IC50 in assay [3] lay within 10 to 50 nM.
The like results for `COC[C@]12CC[C@@](C)(O)C[C@@H]1CC[C@H]1[C@@H]3CC[C@H](C(=O)Cn4cc5nccnc5n4)[C@@]3(C)CC[C@@H]12` [Compound 103] were, in that order, 1000 to 1500% and more than 500 nM.
The like results for `COC[C@]12CC[C@@](C)(O)C[C@@H]1CC[C@H]1[C@@H]3CC[C@H](C(=O)Cn4ncc5cc(F)ccc54)[C@@]3(C)CC[C@@H]12` [Compound 107] were, in that order, 500 to 1000% and more than 500 nM.
For `COC[C@]12CC[C@@](C)(O)C[C@@H]1CC[C@H]1[C@@H]3CC[C@H](C(=O)Cn4ncc5ccc(F)cc54)[C@@]3(C)CC[C@@H]12` [Compound 110] the same measures were 500 to 1000% and 50 to 100 nM.
As for `COC[C@]12CC[C@@](C)(O)C[C@@H]1CC[C@H]1[C@@H]3CC[C@H](C(=O)Cn4cc5ccc(F)cc5n4)[C@@]3(C)CC[C@@H]12` [Compound 111], the Emax at 10 µM in assay [2] lay within 500 to 1000%. Further, the IC50 in assay [3] lay within 50 to 100 nM.
The like results for `COC[C@]12CC[C@@](C)(O)C[C@@H]1CC[C@H]1[C@@H]3CC[C@H](C(=O)Cn4ncc5ccc(Cl)cc54)[C@@]3(C)CC[C@@H]12` [Compound 112] were, in that order, 50 to 500% and 50 to 100 nM.
